# What was measured:
# [1] = system: KRAS^G12A-NSCLC H1573 cell line; test: Ex vivo Edu proliferation test (MI, GI %), H1573; assay type: cell-based; conditions: Table 1; 4 days; uM: osimertinib 0.5, afatinib 0.2, cobimetinib 0.4, trametinib 0.02, TAK-733 0.18, palbociclib 0.15, ribociclib 5
# Procedure: (§1) For ex vivo drug testing, the cells were exposed to a combination of drugs or single drugs for 4 days or 7 days. Following exposure with drug, 1,000-5,000 cells were labeled with 5-ethynyl-2′-deoxyuridine (Edu) to assess the tumor cell proliferation rates. The labeling lasted 24 hours in the presence of drug exposure. In the control group, epithelial tumor cells received no drug exposure with media change (with 0.1% DMSO), but were similarly labeled with Edu. The labeled cells were fixed and blocked with 3% BSA and 0.5% Triton X-100 for 2 hours at room temperature, followed by staining with Hoechst 33342 and EpCAM antibody (1:4000) in PBS solution containing 0.5% Triton X-100 overnight at 4° C. Subsequently, the cells were rinsed with PBST then incubated with Alexa Fluor® 647 conjugated goat-antimouse secondary antibody for 30 minutes at room temperature.
# (§2) The incorporated Edu was detected by Click-iT reaction where fixed cells were incubated with a reaction mixture containing 1× Click-iT Edu reaction buffer, CuSO4, and azide-conjugated Alexa Fluor dye in the dark. The stained cells were washed with PBS two times before image acquisition and analysis.
# (§3) For image acquisition and analysis, the stained tumor cells were imaged by a high-content screening (HCS) platform (Thermo Scientific CellomicsArrayScanXTi HCS reader). The 10× objective was used to collect images. Twenty-five fields were imaged for each well for the analysis. From the images three fluorescent signals were obtained from the HCS reader. Blue fluorescent signals recorded nucleus signals stained with Hoechst 33342, green fluorescent signal detected the Edu incorporated in newly synthesized DNA, and red fluorescent signal detected the EpCAM positive epithelial cells population.
# The MI (Maximum Inhibition Index) was calculated using the EpCAM and Edu positive readout (Tables 1-4). MI=Edu positive cells in control/Edu positive cells in treatment. MI4 indicates an MI value after 4 days of treatment and MI7 indicates an MI values after 7 days of treatment. […] GI % is calculated as GI %=(1−1/MI)*100%.
# [2] = system: KRAS^G12A-NSCLC H2009 cell line; test: Ex vivo Edu proliferation test (MI, GI %), H2009; assay type: cell-based; conditions: Table 1; 4 days; uM: osimertinib 0.5, afatinib 0.2, cobimetinib 0.4, trametinib 0.02, TAK-733 0.18, palbociclib 0.15, ribociclib 5
# Procedure: as §1, §2, §3
# (§4) The MI (Maximum Inhibition Index) was calculated using the EpCAM and Edu positive readout (Tables 1-4). MI=Edu positive cells in control/Edu positive cells in treatment. MI4 indicates an MI value after 4 days of treatment and MI7 indicates an MI values after 7 days of treatment. The MI and growth inhibition rate (GI %) values for KRAS^G12A-NSCLC (H1573 and H2009), KRAS^G12C-NSCLC (H358, H23 and H2030), KRAS^G12V-NSCLC (H2291 and H2444) and KRAS^G12D-NSCLC (H1588 and SK-LU-1) cell lines are shown in Tables 1-4, respectively. GI % is calculated as GI %=(1−1/MI)*100%.
# [3] = system: KRAS^G12C-NSCLC H358 cell line; test: Ex vivo Edu proliferation test (MI, GI %), H358; assay type: cell-based; conditions: Table 2a; 7 days; uM: osimertinib 0.5, afatinib 0.2, cobimetinib 0.4, trametinib 0.02, palbociclib 0.15, ribociclib 5
# Procedure: as §1, §2, §3, §4
# [4] = system: KRAS^G12C-NSCLC H23 cell line; test: Ex vivo Edu proliferation test (MI, GI %), H23; assay type: cell-based; conditions: Table 2a; 7 days; uM: osimertinib 0.5, afatinib 0.2, cobimetinib 0.4, trametinib 0.02, palbociclib 0.15, ribociclib 5
# Procedure: as §1, §2, §3, §4
# [5] = system: KRAS^G12C-NSCLC H2030 cell line; test: Ex vivo Edu proliferation test (MI, GI %), H2030; assay type: cell-based; conditions: Table 2a; 7 days; uM: osimertinib 0.5, afatinib 0.2, cobimetinib 0.4, trametinib 0.02, palbociclib 0.15, ribociclib 5
# Procedure: as §1, §2, §3, §4
# [6] = system: KRAS^G12V-NSCLC H2291 cell line; test: Ex vivo Edu proliferation test (MI, GI %), H2291; assay type: cell-based; conditions: Table 3; 7 days; uM: osimertinib 0.5, afatinib 0.2, trametinib 0.02, TAK-733 0.18, palbociclib 0.15, ribociclib 5
# Procedure: as §1, §2, §3, §4
# [7] = system: KRAS^G12V-NSCLC H2444 cell line; test: Ex vivo Edu proliferation test (MI, GI %), H2444; assay type: cell-based; conditions: Table 3; 4 days; uM: osimertinib 0.5, afatinib 0.2, trametinib 0.02, TAK-733 0.18, palbociclib 0.15, ribociclib 5
# Procedure: as §1, §2, §3, §4
# [8] = system: KRAS^G12D-NSCLC H1588 cell line; test: Ex vivo Edu proliferation test (MI, GI %), H1588; assay type: cell-based; conditions: Table 4; 4 days; uM: osimertinib 0.5, afatinib 0.2, cobimetinib 0.4, trametinib 0.02, TAK-733 0.18, palbociclib 0.15, ribociclib 5
# Procedure: as §1, §2, §3, §4
# [9] = system: KRAS^G12D-NSCLC SK-LU-1 cell line; test: Ex vivo Edu proliferation test (MI, GI %), SK-LU-1; assay type: cell-based; conditions: Table 4; 4 days; uM: osimertinib 0.5, afatinib 0.2, cobimetinib 0.4, trametinib 0.02, TAK-733 0.18, palbociclib 0.15, ribociclib 5
# Procedure: as §1, §2, §3, §4
# [10] = system: KRAS^G12C NSCLC CDX model H358; assay type: in vivo
SMILES,"GI % (Growth Inhibition Rate), H1573 [1] [%]","MI 4 (Maximum Inhibition Index), H1573 [1]","GI % (Growth Inhibition Rate), H2009 [2] [%]","MI 4 (Maximum Inhibition Index), H2009 [2]","GI % (Growth Inhibition Rate), H358 [3] [%]","MI 7 (Maximum Inhibition Index), H358 [3]","GI % (Growth Inhibition Rate), H23 [4] [%]","MI 7 (Maximum Inhibition Index), H23 [4]","GI % (Growth Inhibition Rate), H2030 [5] [%]","MI 7 (Maximum Inhibition Index), H2030 [5]","GI % (Growth Inhibition Rate), H2291 [6] [%]","MI 7 (Maximum Inhibition Index), H2291 [6]","GI % (Growth Inhibition Rate), H2444 [7] [%]","MI 4 (Maximum Inhibition Index), H2444 [7]","GI % (Growth Inhibition Rate), H1588 [8] [%]","MI 4 (Maximum Inhibition Index), H1588 [8]","GI % (Growth Inhibition Rate), SK-LU-1 [9] [%]","MI 4 (Maximum Inhibition Index), SK-LU-1 [9]",other results
"CN(C)C/C=C/C(=O)Nc1cc2c(Nc3ccc(F)c(Cl)c3)ncnc2cc1O[C@H]1CCOC1 [Afatinib, afatinib]",42.36,1.73,14.83,1.17,22.84,1.30,16.09,0.87,55.33,2.23,26.00,1.35,44.30,1.80,43.02,1.75,8.65,1.09,–
"O=C(c1ccc(F)c(F)c1Nc1ccc(I)cc1F)N1CC(O)([C@@H]2CCCCN2)C1 [Cobimetinib, cobimetinib]",96.36,27.49,67.99,3.12,97.48,39.68,75.83,4.25,92.44,13.21,–,–,–,–,48.38,1.94,64.82,2.84,–
"C=CC(=O)Nc1cc(Nc2nccc(-c3cn(C)c4ccccc34)n2)c(OC)cc1N(C)CCN(C)C [Osimertinib, osimertinib]",67.71,3.10,35.30,1.55,22.86,1.30,13.11,0.89,57.39,2.35,21.19,1.30,66.51,2.99,55.11,2.23,35.73,1.56,–
Cn1c(=O)c(F)c(Nc2ccc(I)cc2F)c2c(=O)n(C[C@@H](O)CO)cnc21 [TAK-733],89.62,9.64,62.18,2.64,–,–,–,–,–,–,98.27,57.57,99.01,100.76,36.93,1.59,77.44,4.43,–
N.N.[Cl][Pt][Cl] [cisplatin],–,–,–,–,–,–,–,–,–,–,–,–,–,–,–,–,–,–,"Mean Tumor Volume, study day 0 ([10]; Table 11A, day 0, mg/kg: osimertinib 10, cobimetinib 5, TAK-733 10, palbociclib 20 daily p.o., cetuximab 1, cisplatin 4 per week i.p., 21 days, then 7 days off): 164.52 ± 22.82 mm^3; Mean Tumor Volume, study day 3 ([10]; Table 11A, day 3, mg/kg: osimertinib 10, cobimetinib 5, TAK-733 10, palbociclib 20 daily p.o., cetuximab 1, cisplatin 4 per week i.p., 21 days, then 7 days off): 249.59 ± 33.58 mm^3; Mean Tumor Volume, study day 7 ([10]; Table 11A, day 7, mg/kg: osimertinib 10, cobimetinib 5, TAK-733 10, palbociclib 20 daily p.o., cetuximab 1, cisplatin 4 per week i.p., 21 days, then 7 days off): 438.18 ± 93.81 mm^3; Mean Tumor Volume, study day 10 ([10]; Table 11A, day 10, mg/kg: osimertinib 10, cobimetinib 5, TAK-733 10, palbociclib 20 daily p.o., cetuximab 1, cisplatin 4 per week i.p., 21 days, then 7 days off): 489.05 ± 102.01 mm^3; Mean Tumor Volume, study day 14 ([10]; Table 11A, day 14, mg/kg: osimertinib 10, cobimetinib 5, TAK-733 10, palbociclib 20 daily p.o., cetuximab 1, cisplatin 4 per week i.p., 21 days, then 7 days off): 618.71 ± 145.67 mm^3; Mean Tumor Volume, study day 17 ([10]; Table 11A, day 17, mg/kg: osimertinib 10, cobimetinib 5, TAK-733 10, palbociclib 20 daily p.o., cetuximab 1, cisplatin 4 per week i.p., 21 days, then 7 days off): 685.80 ± 180.07 mm^3; Mean Tumor Volume, study day 21 ([10]; Table 11A, day 21, mg/kg: osimertinib 10, cobimetinib 5, TAK-733 10, palbociclib 20 daily p.o., cetuximab 1, cisplatin 4 per week i.p., 21 days, then 7 days off): 828.32 ± 220.11 mm^3; Mean Tumor Volume, study day 24 ([10]; Table 11A, day 24, mg/kg: osimertinib 10, cobimetinib 5, TAK-733 10, palbociclib 20 daily p.o., cetuximab 1, cisplatin 4 per week i.p., 21 days, then 7 days off): 958.50 ± 207.93 mm^3; Mean Tumor Volume, study day 28 ([10]; Table 11A, day 28, mg/kg: osimertinib 10, cobimetinib 5, TAK-733 10, palbociclib 20 daily p.o., cetuximab 1, cisplatin 4 per week i.p., 21 days, then 7 days off): 1079.33 ± 275.10 mm^3; Tumor volume (mm^3) day 0 ([10]; Table 11C, day 0, doses as Table 11A (TAK-733 10 mg/kg)): 164.52 ± 22.82 mm^3; Tumor volume (mm^3) day 28 ([10]; Table 11C, day 28, doses as Table 11A (TAK-733 10 mg/kg)): 1079.33 ± 275.10 mm^3; TGI % ([10]; Table 11C, day 28 vs day 0, doses as Table 11A (TAK-733 10 mg/kg)): −10.2%; tumor growth inhibition, in words ([10]; Tables 11A and 11C, cisplatin at 4 mg/kg): no effect on inhibiting tumor growth"
